# From patent publication US20260258006A1, “NEW ANTIBIOTIC COMPOUNDS” (UNIVERSITÉ CÔTE D'AZUR, priority 2022, published 2026)
# Where two headings read alike, the source gives them in different places.
# Experiments:
# Format in all cases: cell-based
# [1] = system: human embryonic kidney 293 cells (HEK293); assay: Cytotoxicity by extracellular LDH release (CyQUANT LDH Cytotoxicity Assay Kit); conditions: HEK293, 24 h, at their active doses (range of MIC and MBC), N=3
# Procedure: • HEK293: 24 h in the presence of the bactericide compounds or DMSO • Method of evaluation: CyQUANT™ LDH Cytotoxicity Assay Kit.
# Cytotoxicity through extracellular lactate dehydrogenase (LDH) quantification upon incubation of the compounds with HEK 293T cells at the same range of concentration as MIC and MBC. LDH: positive control, DMEM: negative control. N=3.
# Preliminary safety of these compounds towards host cells was evaluated by using a extracellular lactate dehydrogenase (LDH) release model with human embryonic kidney 293 cells (HEK293).
# [2] = system: Staphylococcus aureus strain RN4220; assay: Minimal Inhibitory Concentration (MIC) determination; conditions: read-out: MIC RN4220
# Procedure: (§1) MIC is defined as the smallest concentration of a compound that inhibits the growth of bacteria. For that, 6 doses were tested (1, 5, 12.5, 25, 50, 100 μM) for both strains incubated at 37° C., for 20 h.
# (§2) Minimum inhibitory concentration (MIC, incubation for 20 h) and maximum bactericide concentration (MBC, incubation for 24 h) for S. aureus strains RN4220 and S25.
# (§3) 2 Staphylococcus aureus Strains: • RN4220 (non-pathogenic) • S25 (pathogenic) • MIC: minimal inhibitory concentration • MBC: minimal bactericide concentration
# [3] = system: Staphylococcus aureus strain S25; assay: as above; conditions: Bacteriostatic, 20 h, 37° C., pathogenic strain
# Procedure: as §1, §2, §3
# [4] = system: Staphylococcus aureus strain RN4220; assay: Minimal Bactericide Concentration (MBC) determination; conditions: RN4220, 24 h, read-out: MBC RN4220
# Procedure: as §1, §2, §3
# [5] = system: Staphylococcus aureus strain S25; assay: as above; conditions: 24 h in fresh media, pathogenic strain
# Procedure: as §1, §2, §3
# [6] = system: Staphylococcus aureus strain RN4220; assay: Bacterial growth inhibition screen at 50 μM; conditions: RN4220, 50 μM, 20 h, 37° C.
# Procedure: (§4) The inhibition of the growth of two Staphylococcus aureus strains ([…], modified laboratory strain, non-pathogenic; and S25, pathogenic strain obtained from patients) by the presence of our compounds were used to evaluate their efficacy as bacteriostatic and/or bactericide compounds.
# (§5) All compounds presented were dissolved in DMSO (10 mM stock solution) and tested initially at 50 μM concentration. The bacterial growth was measured after 5 h and 20 h incubation at 37° C. with the compounds. As positive control, the antibiotics ampicillin and kanamycin were used.
# [7] = system: Staphylococcus aureus strain S25; assay: Bacterial growth inhibition screen at 50 μM; conditions: S25, 50 μM, 20 h, 37° C.
# Procedure: as §4, §5
# [8] = RN4220, Bacteriostatic, 20 h, 37° C., non-pathogenic strain
Structure (SMILES),cytotoxicity (extracellular LDH level versus DMSO control) [1],"MIC [2, 8]",MIC [3],MBC [4],MBC [5],bacterial growth / growth inhibition (in words) [6],bacterial growth / growth inhibition (in words) [7],"MIC ([2]; RN4220, 20 h)"
"O=C(Nc1nc2c(Cl)cc(Cl)cc2s1)C(Cl)(Cl)Cl [MTF640, N-(4,6-dichlorobenzo[d]thiazol-2-yl)trichloroacetamide]",no cytotoxicity activity,12.5 µM,25 µM,50 µM,50 µM,–,–,–
"Cc1cccc2sc(NC(=N)C(Cl)(Cl)Cl)nc12 [MTF572, 2,2,2-trichloro-N-(4-methylbenzo[d]thiazol-2-yl)acetimidamide]",–,–,40 µM,100 µM,–,no growth,no growth,40 µM
"N=C(Nc1nc2c(Br)cccc2s1)C(Br)Br [MTF643, 2,2-dibromo-N-(4-bromobenzo[d]thiazol-2-yl)acetimidamide]",no cytotoxicity activity,25 µM,25 µM,25 µM,50 µM,–,–,–
"N=C(Nc1nc2c(F)cc(F)cc2s1)C(Cl)(Cl)Cl [MTF573, 2,2,2-trichloro-N-(4,6-difluorobenzo[d]thiazol-2-yl)acetimidamide]",no cytotoxicity activity,40 µM,50 µM,50 µM,50 µM,no growth,no growth,–
"N=C(Nc1nc2c(Cl)cc(Cl)cc2s1)C(Cl)(Cl)Cl [MTF642, 2,2,2-trichloro-N-(4,6-dichlorobenzo[d]thiazol-2-yl)acetimidamide]",no cytotoxicity activity,12.5 µM,50 µM,12.5 µM,50 µM,–,–,–
"N=C(Nc1nc2c(Cl)cccc2s1)C(Cl)(Cl)Cl [MTF235, 2,2,2-trichloro-N-(4-chlorobenzo[d]thiazol-2-yl)acetimidamide]",no cytotoxicity activity,25 µM,25 µM,50 µM,50 µM,no growth,no growth,–
